Results: patent publication US20190292546A1, “TLR3 AGONIST FOR USE FOR INDUCING APOPTOSIS IN SENESCENT CANCER CELLS” (Centre Léon-Bérard, priority 2016, published 2019)
Entries after “also recorded” stand apart in the source; their conditions may differ.

How the values were obtained:
[1] = tested on: TLR3 WT and TLR3 KO NCI-H292 untreated or Paclitaxel-Treated Cells; experiment: TLR3-triggered apoptosis (Annexin V-FITC/PI flow cytometry) in Paclitaxel-Treated Cells; type: cell-based, human; conditions: 4 μg/ml Poly(I:C), 24 hours, paclitaxel-induced senescent vs untreated NCI-H292, FIG. 5
Protocol: (§1) NCI-H292 human Non-Small-Cell Cancer Cells were plated at 5000 cells/cm^2 in a 6-well plate in RPMI supplemented with 10% FCS and 1% Hepes/1% NAPy/PS. They were treated after 16-24 hours of plating and for 7 to 10 days with 4 nM paclitaxel (Sigma) or with DMSO (“solvent”), with a change of medium on day 4. The following tests were then performed to ascertain the Paclitaxel-Treated Cells' senescence status.
TLR3 WT and TLR3 KO NCI-H292 untreated or Paclitaxel-Treated Cells were incubated for 24 hours with 4 μg/ml Poly(I:C) (Invivogen), then cells were stained at 4° C. with Annexin V-FITC and PI (Biolegend) and analyzed on a Becton Disckison FACSCalibur flow cytometer.

[2] = tested on: Untreated or Radiation-Induced Senescent WT and TLR3 KO NCI-H292 Cells; experiment: TLR3-triggered apoptosis (Annexin V-FITC PI flow cytometry) in Radiation-Induced Senescent Cells; type: cell-based, human; conditions: 10 μg/ml Poly(I:C), 24 hours, senescence by 8 Grey irradiation vs untreated NCI-H292, FIG. 6
Protocol: NCI-H292 human Non-Small-Cell Cancer Cells were plated at 5000 cells/cm^2 in a 6-well plate in RPMI supplemented with 10% FCS and 1% Hepes/1% NAPy/PS. They were irradiated with 8 Grey 16 hours after plating, and the medium was changed right after irradiation.
(§2) Radiation-Induced Senescent Cells' susceptibility to TLR3-triggered apoptosis was measured. Untreated or Radiation-Induced Senescent WT and TLR3 KO NCI-H292 Cells were incubated for 24 hours with 10 μg/ml Poly(I:C) (Invivogen), then cells were stained at 4° C. with Annexin V-FITC PI (Biolegend) and analyzed on a Becton Disckison FACSCalibur flow cytometer.

[3] = tested on: Untreated or Oxidative Stress-induced Senescent WT and TLR3 KO NCI-H292 Cells; experiment: TLR3-triggered apoptosis (Annexin V-FITC flow cytometry) in Oxidative Stress-induced Senescent Cells; type: cell-based, human; conditions: 10 μg/ml Poly(I:C), 24 hours, senescence by 300 μM H2O2 vs untreated NCI-H292, FIG. 7
Protocol: NCI-H292 human Non-Small-Cell Cancer Cells were plated at 5000 cells/cm^2 in a 6-well plate in RPMI supplemented with 10% FCS and 1% Hepes/1% NAPy/PS. They were treated with 300 μM H2O2 16 hours after plating, and the medium was changed 1 hour after H2O2 treatment.
as §2, with “Oxidative Stress-induced” for “Radiation-Induced”, “V-FITC” for “V-FITC PI”

[4] = tested on: NCI-H292 human Non-Small-Cell Cancer Cells; experiment: Senescence status of Paclitaxel-Treated Cells (phase-contrast morphology, SA-β-GAL, IL-8); type: cell-based; conditions: 4 nM paclitaxel
Protocol: as §1
(§3) 1) An inverted phase-contrast light microscope was used at 40× magnification to evaluate morphology of the Paclitaxel-Treated Cells. […] 2) The senescence-associated β-galactosidase [SA-β-GAL] activity was measured in the Paclitaxel-Treated Cells described above using the Senescence beta-galactosidase Staining Kit (Cell Signaling Technology) (FIG. 2). 3) The secretion of IL-8 as part of the senescence-associated secretome (Tchkonia et al., 2013; J Clin Invest. 123(3):966-72) was quantified in the culture supernatant of the Paclitaxel-Treated Cells using an ELISA kit (Biolegend Kit hulL8), and read on a TECAN microplate reader).

[5] = tested on: NCI-H292 human Non-Small-Cell Cancer Cells; experiment: IL-8 secretion in culture supernatant by ELISA; type: cell-based; conditions: 4 nM paclitaxel, 1, 3 or 7 days, last 24H of culture, FIG. 3
Protocol: NCI-H292 human Non-Small-Cell Cancer Cells were plated at 5000 cells/cm^2 in a 6-well plate in RPMI supplemented with 10% FCS and 1% Hepes/1% NAPy/PS. […] The following tests were then performed to ascertain the Paclitaxel-Treated Cells' senescence status.
as §3

NCI-H292 cells = experiment: TLR3 expression by intracellular staining and flow cytometry; type: cell-based, human; conditions: 7 days of culture with paclitaxel 4 nM, anti-TLR3.1 antibody, FIG. 4
Protocol: To ascertain that TLR3 expression was not lost upon senescence, Paclitaxel-Treated Cells were harvested, fixed and permeabilized with the Cytoperm/Cytofix kit (Becton Dickinson), then stained at 4° C. for TLR3 (anti-TLR3.1 antibody (Dendritics)+goat anti-mouse Alexa 647) and analyzed on a Becton Disckison FACSCalibur flow cytometer.

| Compound | susceptibility to TLR3-triggered apoptosis [1] | susceptibility to TLR3-triggered apoptosis [2] | susceptibility to TLR3-triggered apoptosis [3] | morphology of the Paclitaxel-Treated Cells (observed changes) ([4]; 7 to 10 days, NCI-H292, phase-contrast microscopy 40x, FIG. 1) | senescence status of the cells ([4]; NCI-H292, FIGS. 1-3) | secretion of IL-8 in the culture supernatant [5] | expression of TLR3 by NCI-H292 cells (NCI-H292 cells) |
| --- | --- | --- | --- | --- | --- | --- | --- |
| Polyinosine-polycytidylic acid [Poly(I:C)] | more sensitive to TLR3-triggered apoptosis | induces apoptosis; also recorded: more sensitive to TLR3-triggered apoptosis | induces apoptosis; also recorded: more sensitive to TLR3-triggered apoptosis |  |  |  |  |
| CC(=O)O[C@H]1C(=O)[C@@]2(C)[C@H]([C@H](OC(=O)c3ccccc3)[C@]3(O)C[C@H](OC(=O)[C@H](O)[C@@H](NC(=O)c4ccccc4)c4ccccc4)C(C)=C1C3(C)C)[C@]1(OC(C)=O)CO[C@@H]1C[C@@H]2O [Paclitaxel, paclitaxel] |  |  |  | a stop in cell division and enlargement in size | have become senescent | Large amounts of IL-8 | increased |
